In this experiment the target is T1, β-Lactoglobulin (β-LG) (Bos taurus, UniProt P02754).
T1 construct: gene LGB
T1 sequence (P02754 17-178): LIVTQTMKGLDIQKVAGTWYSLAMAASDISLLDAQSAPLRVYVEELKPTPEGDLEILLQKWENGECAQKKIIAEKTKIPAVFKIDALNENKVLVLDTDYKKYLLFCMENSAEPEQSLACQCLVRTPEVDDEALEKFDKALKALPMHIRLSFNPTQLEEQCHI
The experiment in a line: intrinsic fluorescence enhancement titration (binding constant from […]/ΔF vs […]/Cq); supported by CD, FT-IR, UV, DLS and zeta potential. To be noted: read-out: intrinsic fluorescence enhancement titration (binding constant from 1/ΔF vs 1/Cq) (converted).

SMILES strings stand for the structures.

Consider `c1ccc2c(Cc3c[nH]c4ccccc34)c[nH]c2c1` [DIM, 3,3′-diindolylmethane], for which the Kd is 1.49 µM.

These data come from publication PMC6600512, “Interactions between β-Lactoglobulin and 3,3′-Diindolylmethane in Model System” (Molecules, 2019).
